Here are results for 19 molecules from patent publication US10550110B2, “Tetrahydroquinoline sulfonamide derivatives as inverse agonists of retinoid-related orphan receptor gamma (ROR gamma (t))” (GALDERMA RESEARCH & DEVELOPMENT, priority 2014, dated 2020).

Test [1] addresses T1, ROR gamma ligand-binding domain (LBD) (hRORg) (Homo sapiens, UniProt P51449).
T1 construct: expressed in transfected cells; host or cells: HG5LN (HeLa line with GAL4-responsive luciferase reporter)
T1 sequence (P51449 269-508 limits assumed): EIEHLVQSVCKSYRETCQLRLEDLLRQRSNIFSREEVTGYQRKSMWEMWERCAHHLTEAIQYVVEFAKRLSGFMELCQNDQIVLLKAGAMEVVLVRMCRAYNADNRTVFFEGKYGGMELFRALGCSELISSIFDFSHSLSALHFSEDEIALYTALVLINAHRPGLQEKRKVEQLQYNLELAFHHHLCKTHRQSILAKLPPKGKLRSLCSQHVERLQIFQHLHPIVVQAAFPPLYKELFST
Briefly: GAL4-RORγ transactivation (luciferase reporter, HG5LN HeLa line). The note with it: HG5LN HeLa line with GAL4 DBD fused to ROR gamma LBD, 18 hours incubation. It counts as cell-based. The source says: GAL4—RORγ Transactivation
The RORγ transactivation model was developed from the line HG5LN, which is a HeLa line that stably expresses a luciferase reporter gene controlled by a pentamer of the GAL4 recognition domain of yeast and of a β-globin promoter. The HG5LN line was stably transfected by the DNA-binding domain (DBD) of GAL4 fused to the ROR gamma ligand-binding domain (LBD). Molecules that inhibit the ROR gamma constitutive activity reduce the luciferase expression, thus leading to a reduction in the emitted luminescence.
The cells are seeded in 384-well plates (5000 cells in 45 μL/well of culture medium containing 10% fetal calf serum) and incubated for 4 hours at 37° C., 5% CO2. 5 μL of the test molecules (compounds described in the tables described above) are then added to each well and the plates are incubated for 18 hours at a temperature of 37° C. under 5% of CO2. 20 μL of luciferase substrate (Promega) are added to each well and the luminescence emitted is read by a microplate reader.
The luminescence units (“RLU”) are normalized by positive controls (“POS” containing a saturated concentration of N-(2,2,2-trifluoroethyl)-N-[4-[2,2,2-trifluoro-1-hydroxy-1-(trifluoromethyl)ethyl]phenyl])benzenesulfonamide and negative controls (“NEG” containing DMSO): % inhibition=((RLU-NEG)*100)/(POS-NEG). The IC50 values are calculated from a 4-parameter logistic model using the XLFit software (IDBS).
Background: A reporter such as luciferase makes a cellular process visible.

For test [2], the system named is IL-17A secretion by CD4+ cells. Briefly: IL-17A secretion by CD4+ cells (HTRF). It counts as cell-based. The note with it: human peripheral blood CD4+ cells activated with anti-CD3 and anti-CD28, 4 days incubation, IL-17A by HTRF, read-out: IC50 hCD4/IL17. Here is the method: This model allows measurement of the effect of inhibitors on IL-17A secretion by CD4+ cells. The cells are frozen CD4+ cells (STEMCELL, #70026), isolated from peripheral human blood and activated with anti-CD3 and anti-CD28 antibodies. The amount of IL-17A secreted is measured by the TR-FRET (kit HTRF® Human Interleukin 17A (Cisbio, #64H17PEC)) technology.
The cells are rapidly thawed, resuspended in their culture medium (RPMI inactivated 10% FCS) supplemented with soluble anti-CD28 antibodies and seeded (100 000 cells/well) in 96-well plates precoated with anti-CD3 antibodies. The cells are then treated with the ranges of inhibitors to be tested (from 1000 nM to 0.05 nM, 0.1% DMSO). After 4 days of incubation, the HTRF signal is measured using a microplate reader (λexcitation=337 nm, λemission=620/665 nm). The ratios obtained (665/620) are normalized relative to the positive control (cells activated with anti-CD3 and anti-CD28, 0.1% DMSO). The IC50 values are calculated from a 4-parameter logistic model using the XLFit software (IDBS).
For orientation: Time-resolved FRET reads energy transfer from a long-lived donor to a nearby acceptor.

Structures are written as SMILES. Like-named read-outs stand apart in the source and are kept apart here.

Turning to `CCc1ccc(N(CC(C)C)S(=O)(=O)c2ccc3c(c2)C(O)CCN3CC2CC(O)C2)cc1` (mixture of isomers) [Compound 20, 4-hydroxy-1-(3-hydroxycyclobutylmethyl)-1,2,3,4-tetrahydroquinoline-6-sulfonic acid (4-ethylphenyl)isobutylamide], the IC50 in test [1] is 100 to 1000 nM; in test [2] (96 h), less than 100 nM.
Regarding `CCc1ccc(N(CC(C)C)S(=O)(=O)c2ccc3c(c2)C(O)CCN3CC2CCOCC2)cc1` (racemic) [Compound 2, 4-hydroxy-1-(tetrahydropyran-4-ylmethyl)-1,2,3,4-tetrahydroquinoline-6-sulfonic acid (4-ethylphenyl)isobutylamide], the IC50 in test [1] is less than 100 nM; in test [2] (96 h), 100 to 1000 nM.
In the case of `CCc1ccc(N(CC(C)C)S(=O)(=O)c2ccc3c(c2)C(O)CCN3CC2CCOCC2)cc1` (single isomer, unassigned) [Enantiomer 1, 4-hydroxy-1-(tetrahydropyran-4-ylmethyl)-1,2,3,4-tetrahydroquinoline-6-sulfonic acid (4-ethylphenyl)isobutylamide], the IC50 in test [1] and in test [2] was less than 100 nM in each case.
Regarding `CCc1ccc(N(CC(C)C)S(=O)(=O)c2ccc3c(c2)C(O)CCN3CC2CCOCC2)cc1` (single isomer, unassigned) [Enantiomer 2, 4-hydroxy-1-(tetrahydropyran-4-ylmethyl)-1,2,3,4-tetrahydroquinoline-6-sulfonic acid (4-ethylphenyl)isobutylamide], the IC50 in test [1] is 100 to 1000 nM; in test [2] (96 h), less than 100 nM.
For `CCc1ccc(N(CC(C)C)S(=O)(=O)c2ccc3c(c2)C(=O)CCN3CC2CCOCC2)cc1` [Compound 1, 4-oxo-1-(tetrahydropyran-4-ylmethyl)-1,2,3,4-tetrahydroquinoline-6-sulfonic acid (4-ethylphenyl)isobutylamide], in that order: 100 to 1000 nM and 100 to 1000 nM.
In the case of `CCc1ccc(N(CC(C)C)S(=O)(=O)c2ccc3c(c2)C(=O)CCN3Cc2ccncc2)cc1` [Compound 4, 4-oxo-1-pyridin-4-ylmethyl-1,2,3,4-tetrahydroquinoline-6-sulfonic acid (4-ethylphenyl)isobutylamide], the IC50 in test [1] and in test [2] (96 h) was less than 100 nM throughout.
For `CCc1ccc(N(CC(C)C)S(=O)(=O)c2ccc3c(c2)C(O)CCN3Cc2ccncc2)cc1` (centres unmarked) [Compound 10, 4-hydroxy-1-pyridin-4-ylmethyl-1,2,3,4-tetrahydroquinoline-6-sulfonic acid (4-ethylphenyl)isobutylamide], the IC50 in test [1] and in test [2] (96 h) was less than 100 nM in each case.
For the molecule `CCc1ccc(N(CC(C)C)S(=O)(=O)c2ccc3c(c2)C(O)CCN3Cc2ccnc(F)c2)cc1` (centres unmarked) [Compound 11, 1-(2-fluoropyridin-4-ylmethyl)-4-hydroxy-1,2,3,4-tetrahydroquinoline-6-sulfonic acid (4-ethylphenyl)isobutylamide], the IC50 in test [1] and in test [2] (96 h) was less than 100 nM each time.
As to `CCc1ccc(N(CC(C)C)S(=O)(=O)c2ccc3c(c2)C(O)CCN3CC2(C)CCOCC2)cc1` (centres unmarked) [Compound 14, 1-(4-methyltetrahydropyran-4-ylmethyl)-4-hydroxy-1,2,3,4-tetrahydroquinoline-6-sulfonic acid (4-ethylphenyl)isobutylamide], the IC50 in test [1] and in test [2] (96 h) was less than 100 nM throughout.
For the molecule `CCc1ccc(N(CC(C)C)S(=O)(=O)c2ccc3c(c2)C(O)CCN3CC2(F)CCOCC2)cc1` (centres unmarked) [Compound 15, 1-(4-fluorotetrahydropyran-4-ylmethyl)-4-hydroxy-1,2,3,4-tetrahydroquinoline-6-sulfonic acid (4-ethylphenyl)isobutylamide], the results for the IC50 in test [1] and in test [2] (96 h) were 100 to 1000 nM and less than 100 nM, respectively.
The like results for `CCc1ccc(N(CC(C)C)S(=O)(=O)c2ccc3c(c2)C(O)CCN3CC2(C)COC2)cc1` (centres unmarked) [Compound 19, 4-hydroxy-1-(3-methyloxetan-3-ylmethyl)-1,2,3,4-tetrahydroquinoline-6-sulfonic acid (4-ethylphenyl)isobutylamide] were, in that order, 100 to 1000 nM and less than 100 nM.
On to `CCc1ccc(N(CC(C)C)S(=O)(=O)c2ccc3c(c2)C(O)CCN3Cc2ccnnc2)cc1` (centres unmarked) [Compound 29, 4-hydroxy-1-pyridazin-4-ylmethyl-1,2,3,4-tetrahydroquinoline-6-sulfonic acid (4-ethylphenyl)isobutylamide], for which the IC50 in test [1] and in test [2] (96 h) was less than 100 nM throughout.
On to `CCc1ccc(N(CC(C)C)S(=O)(=O)c2ccc3c(c2)C(O)CCN3C[C@H]2[C@@H]3COC[C@@H]32)cc1` (stereo partly drawn) [Compound 37, 4-hydroxy-1-[(1S,5R,6S)-1-(3-oxabicyclo[3.1.0]hex-6-yl)methyl]-1,2,3,4-tetrahydroquinoline-6-sulfonic acid (4-ethylphenyl)isobutylamide], for which the IC50 in test [1] and in test [2] (96 h) was less than 100 nM in each case.
As for `CCc1ccc(N(CC(C)C)S(=O)(=O)c2ccc3c(c2)C(O)CCN3Cc2cn[nH]c2)cc1` (centres unmarked) [Compound 45, 4-hydroxy-1-(1H-pyrazol-4-ylmethyl)-1,2,3,4-tetrahydroquinoline-6-sulfonic acid (4-ethylphenyl)isobutylamide], the IC50 in test [1] is 100 to 1000 nM; in test [2] (96 h) it was less than 100 nM.
With `CCc1ccc(N(CC(C)C)S(=O)(=O)c2ccc3c(c2)C(O)CCN3CC2CN(C(=O)OC)C2)cc1` (centres unmarked) [Compound 46, methyl ester of 3-{6-[(4-ethylphenyl)isobutylsulfamoyl]-4-hydroxy-3,4-dihydro-2H-quinolin-1-ylmethyl}azetidine-1-carboxylic acid], the IC50 in test [1] and in test [2] (96 h) was 100 to 1000 nM throughout.
`CCc1ccc(N(CC(C)C)S(=O)(=O)c2ccc3c(c2)C(=O)CCN3C2CCN(S(C)(=O)=O)CC2)cc1` [Compound 63, 1-(1-methanesulfonylpiperidin-4-yl)-4-oxo-1,2,3,4-tetrahydroquinoline-6-sulfonic acid (4-ethylphenyl)isobutylamide] had an IC50 in test [1] greater than 1000 nM.
`CCc1ccc(N(CC(C)C)S(=O)(=O)c2ccc3c(c2)C(O)CCN3C2CCN(S(C)(=O)=O)CC2)cc1` (centres unmarked) [Compound 64, 4-hydroxy-1-(1-methanesulfonylpiperidin-4-yl)-1,2,3,4-tetrahydroquinoline-6-sulfonic acid (4-ethylphenyl)isobutylamide] registered an IC50 in test [1] greater than 1000 nM.
With `COc1ccc(N(C(C)C)S(=O)(=O)c2ccc3c(c2)C(O)CCN3Cc2cn[nH]c2)c(C)c1` (centres unmarked) [Compound 65, 4-hydroxy-1-(1H-pyrazol-4-ylmethyl)-1,2,3,4-tetrahydroquinoline-6-sulfonic acid isopropyl(4-methoxy-2-methylphenyl)amide], the IC50 in test [1] was greater than 1000 nM.
In the case of `Cc1cc(C)c(N(CC(C)C)S(=O)(=O)c2ccc3c(c2)C(O)CCN3CC2CCOCC2)cn1` (centres unmarked) [Compound 66, 4-hydroxy-1-(tetrahydropyran-4-ylmethyl)-1,2,3,4-tetrahydroquinoline-6-sulfonic acid (4,6-dimethylpyridin-3-yl)isobutylamide], the IC50 in test [1] and in test [2] (96 h) was greater than 1000 nM throughout.
